Measurements from patent US6667165B2, “Method and compositions for reversible inhibition of thermostable polymerases” (Eppendorf AG, priority 2001, dated 2003).

Assays:
Type in all cases: biochemical
Taq DNA polymerase [1] = target: T1, Taq DNA polymerase (Thermus aquaticus, UniProt P19821); test: M13 phage DNA primer extension assay (agarose gel read-out); conditions: for restoration of Taq DNA polymerase activity at 60° C.: concentration range tested, lowest 10 μmol; for inhibition of Taq DNA polymerase at 40° C. (FIG. 5) / inhibition of Taq DNA polymerase (FIG. 6): 40° C.; for inhibitory effect on Taq DNA polymerase in primer extension assay: 51° C., carbohydrates 1% w/vol, ds Lambda DNA 5 μg/rxn, 10 minutes pre-incubation with Taq
T1 construct: purchased Eppendorf AG
From the text: A simple non-radioactive primer extension assay was used to monitor the activity of Taq DNA polymerase for DNA synthesis at various temperatures. The universal −47 M13 24-mer sequencing primer (New England Biolabs, Inc.) was annealed to circular single-stranded virion DNA from E. coli phage M13 (New England Biolabs, Inc.) to form an appropriate template for DNA synthesis by Taq DNA polymerase.
During the assay reactions, the annealed primer is extended by stepwise addition of complementary nucleotides (dNTP) on the single-stranded template DNA with Taq polymerase. The polymerase mediated primer extension reaction transforms the circular single-stranded (ss) template DNA into a double-stranded (ds) plasmid-like circular DNA molecule, as shown in FIG. 1. A completely ds circular phage DNA molecule is synthesized when the de-novo synthesized complementary strand reaches the 5′ end of the extended primer. This terminates the DNA synthesis process due to the weak strand displacement activity of Taq DNA polymerase. The ss primed template DNA, the full length ds circular DNA synthesis product, and intermediate synthesis products with ds regions of variable length differ from each other by their electrophoretic mobility in 1% agarose gels. The initial DNA template and all reaction products can be separated and monitored by electrophoresis in a 1% […] agarose gel stained with ethidium bromide.
The electrophoretic mobility of the three species reciprocally correlates with the length of the de-novo synthesized complementary strand. With increasing length of the ds regions, the migration of intermediate primer extension products shifts toward the slow migrating band of ds circular DNA (full-length synthesis product). The amount (band intensity) of the ds full-length synthesis product, as well as the migration shift of intermediate primer extension product, were used as a measure for the activity and extension rate of Taq DNA polymerase under various reaction conditions.
After the denaturation/annealing reaction the primed ss template DNA was stored frozen at −20° C. until use. 5 μL of this primed ss template DNA mix were added into a 50 μL primer extension assay reaction, or 2 μL into a 20 μL assay, respectively. The primer extension assay reactions were set-up on ice in 0.2 mL PCR tubes adding the reaction components to the following final concentrations:
The primer extension reactions were incubated for either 20 or 40 minutes on Eppendorf Mastercyclers set to the desired reaction temperature (30° C.-70° C.). At the end of the incubation time the reaction were placed on ice and 1 μL of 100 mM EDTA was added to stop the reaction immediately. 20 μL of each primer extension assay reaction were loaded on the 1% agarose gel for further analysis.
Soluble carbohydrates 5% w/vol aqueous solutions in molecular biology grade water were prepared. The desired carbohydrates or ds DNA were added to the primer extension reaction described above in Example 2 to final concentrations of 1% w/vol. In modification of the original primer extension assay the reaction mixtures were set-up without the primed template DNA. The primer-template DNA was added to the Taq DNA polymerase/carbohydrate sample after a 10 minutes pre-incubation in order to permit preliminary interaction of the carbohydrate with the Taq DNA polymerase, i.e., pre-incubate the carbohydrate onto the Taq DNA polymerase. The primer extension reactions were incubated for 40 minutes at 51° C. (the critical temperature for specific primer annealing). 20 μl of the reaction mixtures were analyzed on 0.7% agarose gel.
Primer extension assays were carried out in the presence of various concentration of dextran sulfate Mw 1500 (see FIG. 4), Mw 4000, Mw 5000 and Mw 8000 (see FIGS. 5 and 6). The reaction set-up was modified so that the dextran sulfates were pre-mixed into the Taq polymerase solution (5 U/μl) to provide final concentrations as indicated in the Figures. […]

Taq DNA polymerase [2] = target: T1, Taq DNA polymerase; test: 2 kb human β-globin gene fragment PCR, specificity and yield on agarose gel
Description: In order to amplify a predictable sized DNA fragment of the human β-globin gene, a pair of known primers was selected from a region of the human β-globin gene (Collins et al (1984) Prog Nucleic Acid Res Mol Biol 31:315-462 to yield PCR products with length of 2.0 kb: The Taq DNA polymerase 5 U/μl containing 0.2 mM dextran sulfate Mw4000 was used in the PCR mixtures (10 mM Tris-HCl, pH 8.3, 50 mM KCl, 2.5 mM Mg(OAc)2, 200 μM dNTP) in which human genomic DNA (100 ng) was used as template. The PCR was performed as follows: 94° C. for 2 min followed by 35 cycles of 55° C.—20 seconds, 72° C.—2:30 minutes and 94° C. for −15 seconds. The PCR products were subjected to agarose gel electrophoresis. Negative control experiments were carried out under the same PCR conditions except that unmodified Taq DNA Polymerase was used in the reaction. A positive control experiment was carried out in the same PCR conditions except that AmpliTaq Gold DNA Polymerase (Perkin Elmer Biosystems), the market leading product for performing highly specific hot start PCR, with the appropriate reaction buffer were used in the reaction.
The same basic PCR assay was performed as described in the previous Examples, except that Taq DNA polymerase preparations were mixed with increasing amounts of dextran sulfate Mw4000. […]

Taq DNA polymerase [3] = target: T1, Taq DNA polymerase; test: Primer extension assay quantified with picogreen (de-novo synthesized ds DNA); conditions: Mw4000, Mw5000, Mw8000 at 175 μmol, 30 μmol and 32 μmol; 5 minutes incubation; FIG. 10
From the text: FIG. 10 graphically illustrates the temperature dependent inhibition of Taq DNA polymerase by dextran sulfate Mw4000, Mw5000, and Mw8000 which have been quantitatively analyzed. In each reaction the amount of de-novo synthesized double-stranded DNA was quantified with picogreen on a Fluorescence Microplate Reader. The amount of double-stranded DNA in the control reactions with unmodified Taq polymerase at each temperature tested were taken as 100% activity at the corresponding reaction temperature. […] at the corresponding reaction temperature and multiplied by 100 to calculate the percent of residual activity of dextran sulfate inhibited Taq polymerase from the activity of the unmodified enzyme at that temperature (bold line graphs). 100 minus the percent of residual activity of dextran sulfate inhibited Taq polymerase represents the percent of relative activity inhibition of dextran sulfate/Taq polymerase complexes at each temperature shown with dotted line graphs.
Primer extension was set-up as described in Example 4. The final concentrations of dextran sulfate Mw4000, Mw5000 and Mw8000 were adjusted to 175 μmol, 30 μmol and 32 μmol, respectively. At each tested incubation temperature a control reaction was carried out with unmodified Taq polymerase. After 5 minutes incubation the reactions were stopped as described earlier. 25.2 μl out of 50 μl were used to quantify the yield of de-novo synthesized double-stranded DNA with picogreen. The picogreen stained DNA samples were measured on a Fluorescence Microplate Reader.
The amount of double-stranded DNA in the control reactions with unmodified Taq polymerase at each temperature tested were taken as 100% activity at the corresponding reaction temperature. […]

[4] = 20 minutes, first concentration ranges
[5] = 20 minutes, re-fined concentration ranges

T1 sequence (P19821 whole entry): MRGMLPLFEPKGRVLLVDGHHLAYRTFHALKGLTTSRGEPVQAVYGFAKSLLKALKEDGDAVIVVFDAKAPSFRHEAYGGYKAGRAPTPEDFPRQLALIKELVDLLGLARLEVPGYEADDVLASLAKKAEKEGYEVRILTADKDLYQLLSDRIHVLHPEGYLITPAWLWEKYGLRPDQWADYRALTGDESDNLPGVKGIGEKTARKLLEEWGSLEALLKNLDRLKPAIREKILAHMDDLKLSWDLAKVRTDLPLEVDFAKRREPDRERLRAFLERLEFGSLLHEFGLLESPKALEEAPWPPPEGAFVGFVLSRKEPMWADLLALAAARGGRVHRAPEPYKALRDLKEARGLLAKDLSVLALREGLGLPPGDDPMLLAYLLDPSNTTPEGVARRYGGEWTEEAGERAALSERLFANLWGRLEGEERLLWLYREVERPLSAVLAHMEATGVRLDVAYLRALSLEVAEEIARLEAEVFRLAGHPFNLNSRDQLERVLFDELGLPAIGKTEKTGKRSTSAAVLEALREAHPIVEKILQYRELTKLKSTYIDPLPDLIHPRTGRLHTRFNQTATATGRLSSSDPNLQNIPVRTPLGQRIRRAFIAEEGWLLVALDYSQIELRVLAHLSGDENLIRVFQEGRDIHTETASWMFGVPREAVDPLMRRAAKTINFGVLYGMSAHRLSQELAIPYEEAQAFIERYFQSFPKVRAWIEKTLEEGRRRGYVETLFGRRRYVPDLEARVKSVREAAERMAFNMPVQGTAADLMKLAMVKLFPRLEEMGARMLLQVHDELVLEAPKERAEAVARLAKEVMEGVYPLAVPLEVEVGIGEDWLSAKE

dextran sulfate [dextran sulfate Mw 1500]
concentration at which partial release of inhibition was detected (Taq DNA polymerase [1]; 50° C. and 60° C., FIG. 4): < 50 µmol | restoration of Taq DNA polymerase activity at 60° C. (Taq DNA polymerase [1]; 20 minutes): only be partially restored | restoration of Taq DNA polymerase activity at 60° C. (Taq DNA polymerase [1]; 20 minutes, listed as dextran sulfate Mw 1,500): full synthesis activity could not be regained

dextran sulfate [dextran sulfate Mw 4000]
inhibition of Taq DNA polymerase at 40° C. (FIG. 5) (Taq DNA polymerase [1]; [4]): strong inhibition | inhibition of Taq DNA polymerase (FIG. 6) (Taq DNA polymerase [1]; [5]): strong inhibition | effect on specificity of the PCR reaction (Taq DNA polymerase [2]; 100 ng human genomic DNA, Taq 5 U/μl containing 0.2 mM dextran sulfate, 35 cycles, FIG. 7): significantly enhanced the specificity | yield and specificity of the 2 kb PCR fragment versus concentration (Taq DNA polymerase [2]; increasing amounts of dextran sulfate, FIG. 8): clear correlation | temperature dependence of Taq DNA polymerase inhibition (relative to unmodified Taq) (Taq DNA polymerase [3]): inhibit Taq DNA polymerase in a temperature dependent manner

dextran sulfate [dextran sulfate Mw 5000]
inhibition of Taq DNA polymerase at 40° C. (FIG. 5) (Taq DNA polymerase [1]; [4]): strong inhibition | inhibition of Taq DNA polymerase (FIG. 6) (Taq DNA polymerase [1]; [5]): strongest inhibition of all dextran sulfate derivatives tested | inhibitory effect on Taq DNA polymerase in primer extension assay (Taq DNA polymerase [1]; MW 5000): strong inhibition | inhibitory effect on Taq DNA polymerase in primer extension assay (Taq DNA polymerase [1]; listed as dextran sulfate having a molecular weight of 5000): strong inhibitor | concentration at which almost full Taq polymerase activity could be restored between 60-70° C. (Taq DNA polymerase [1]; 20 minutes, dextran sulfate pre-mixed into Taq polymerase solution): 1.25 µM | concentration range with strong inhibition at 40° C. and release of almost full activity at 70° C. (FIG. 5) (Taq DNA polymerase [1]; first concentration ranges, 40° C.-70° C., 20 minutes): 1.25 µmol | concentration range with strong inhibition at 40° C. and release of almost full activity at 70° C. (FIG. 6) (Taq DNA polymerase [1]; re-fined concentration ranges, 40° C.-70° C., 20 minutes): 1.25 µmol | temperature dependence of Taq DNA polymerase inhibition (relative to unmodified Taq) (Taq DNA polymerase [3]): inhibit Taq DNA polymerase in a temperature dependent manner

dextran sulfate [dextran sulfate Mw 8000]
inhibition of Taq DNA polymerase at 40° C. (FIG. 5) (Taq DNA polymerase [1]; [4]): strong inhibition | inhibition of Taq DNA polymerase (FIG. 6) (Taq DNA polymerase [1]; [5]): strong inhibition | temperature dependence of Taq DNA polymerase inhibition (relative to unmodified Taq) (Taq DNA polymerase [3]): inhibit Taq DNA polymerase in a temperature dependent manner

methylcellulose [reference compound]
inhibitory effect on Taq DNA polymerase in primer extension assay (Taq DNA polymerase [1]): weak inhibitory effect
